Measured values taken from patent US11016100B2, “Methods for identifying modulators of ion channels” (X-Body, Inc., priority 2007, dated 2021).

Tested on: parental CHO cells
Settings: parental CHO cells lacking hERG ion channels; potassium-free starvation buffer; FIG. 3
Procedure: This protocol employs potassium free starvation buffer to depolarize cells and thereby open ion channels such that screening ion channel modulators is possible. Colorimetric resonant reflectance biosensor plates were washed with 1×PBS for hydration baseline for 3 to 5 minutes. A PWV was determined for each of the wells. […] The plates were coated with 25.0 μl/well of fibronectin for 2 hrs at room temperature. The plates were blocked for 1 hour at room temperature or overnight at 4° C. by addition of 25.0 μl ovalbumin or BSA in PBS to the wells previously coated with fibronectin.
Starvation buffers were prepared with and without potassium. For 500.0 ml potassium-free starvation buffer the following reagents were used: 25 ml of 3M NaCl for 150 mM NaCl final; 10.0 ml for 20 mM HEPES; 1.0 ml for 2 mM calcium chloride; 0.5 ml for 2 mM magnesium chloride; 1.0 ml for 5 mM D-(+)-glucose; up to 500.0 ml with H2O HPLC. Potassium starvation buffer is prepared the same as above, but with 2 mM KCl added. […]
20.0 μl of potassium-containing starvation buffer was added to each well. […] The average number of cells/well was determined. […]
PWVs are taken for the biosensor plates for 3 to 5 minutes or until a stable read of less than 1-2 pm change/minute is attained. […]

COc1cc(N)c(Cl)cc1C(=O)NC1CCN(CCCOc2ccc(F)cc2)CC1OC (stereo not shown) [Cisapride monohydrate]
effect of the inhibitors on cell swelling in parental CHO cells (PWV): little to no effect
